Values quoted from earlier work, collected in patent US20150297310A1, “METHODS FOR SELECTING A TREATMENT FOR CANCER” (priority 2014, published 2015).

Test system: AB1-HA tumor
Details: AB1-HA tumor model, CTX treatment at Day 9

In the case of `O=P1(N(CCCl)CCCl)NCCCO1` (stereo not shown) [CTX, Cyclophosphamide], the cure rate is given as 75%.
